This passage reports T/C results from PubChem BioAssay AID256 (DTP/NCI, 2004).

The test system of the assay is CD2F1 mice, L1210 leukemia ip, survival T/C. Kind of assay: NCI In Vivo Anticancer Drug Screen. Data for tumor model L1210 Leukemia (intraperitoneal) in CD2F1 (CDF1) mice. Particulars: higher = longer survival. In a few lines: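 In this screen, transplantable tumors were grown in mice given either the compound or its vehicle. Results were expressed as the treated measurement relative to the control measurement.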

Where [1] appears, read: endpoint: mean survival time, dose: 50.0 mg/kg/injection, schedule: Q04DX002 (ip), vehicle: saline with Tween-80.
Setting [2] is: endpoint: mean survival time, dose: 100.0 mg/kg/injection, schedule: Q04DX002 (ip), vehicle: saline with Tween-80.
[3] abbreviates: endpoint: mean survival time, dose: 200.0 mg/kg/injection, schedule: Q04DX002 (ip), vehicle: saline with Tween-80.
[4] abbreviates: endpoint: mean survival time, dose: 100.0 mg/kg/injection, schedule: Q04DX003 (ip), vehicle: saline with Tween-80.
The mark [5] stands for this setting: endpoint: mean survival time, dose: 200.0 mg/kg/injection, schedule: Q04DX003 (ip), vehicle: saline with Tween-80.
Where [6] appears, read: endpoint: mean survival time, dose: 400.0 mg/kg/injection, schedule: Q04DX003 (ip), vehicle: saline with Tween-80.
Setting [7] is: endpoint: mean survival time, dose: 100.0 mg/kg/injection, schedule: Q04DX003 (ip), vehicle: saline.
The mark [8] stands for this setting: endpoint: mean survival time, dose: 200.0 mg/kg/injection, schedule: Q04DX003 (ip), vehicle: saline.
The mark [9] stands for this setting: endpoint: mean survival time, dose: 400.0 mg/kg/injection, schedule: Q04DX003 (ip), vehicle: saline.
[10] abbreviates: endpoint: mean survival time, dose: 100.0 mg/kg/injection, schedule: Q01DX009 (ip), vehicle: saline sonified.
Where [11] appears, read: endpoint: mean survival time, dose: 100.0 mg/kg/injection, schedule: Q01DX009 (ip), vehicle: saline with Tween-80.

Values joined by “and” are separate entries in the source; they are usually repeats but may differ in a detail not shown here. Equal entries are not always repeated. Toxic doses and inconclusive results are not listed.

As for `C1CC2(CCC13CS3)CS2` (stereo not drawn), the T/C was 98 % of control under setting [1], 98 % of control under setting [2] and 95 % of control under setting [3].
Consider `OC1CC2CC2CC1O` (stereo not drawn), for which the T/C is, setting by setting: under setting [4], 103 % of control; under setting [5], 92 % of control; under setting [6], 96 % of control.
As to `Clc1ccc(C2SC=Cc3ccccc32)cc1` (stereo not drawn), the T/C is 110 % of control (endpoint: median survival time, dose: 25.0 mg/kg/injection, schedule: Q01DX009 (ip), vehicle: Klucel (hydroxypropylcellulose) (HPC)); 104 % of control (endpoint: median survival time, dose: 50.0 mg/kg/injection, schedule: Q01DX009 (ip), vehicle: Klucel (hydroxypropylcellulose) (HPC)); 109 % of control (endpoint: median survival time, dose: 100.0 mg/kg/injection, schedule: Q01DX009 (ip), vehicle: Klucel (hydroxypropylcellulose) (HPC)); 104 % of control (endpoint: median survival time, dose: 200.0 mg/kg/injection, schedule: Q01DX009 (ip), vehicle: Klucel (hydroxypropylcellulose) (HPC)).
Consider `CC1CN(CCC#N)CC(C)O1` (stereo not drawn), for which the T/C is 105 % of control (endpoint: mean survival time, dose: 100.0 mg/kg/injection, schedule: Q01DX009 (ip), vehicle: saline); 95 % of control under setting [7]; 104 % of control (endpoint: mean survival time, dose: 200.0 mg/kg/injection, schedule: Q01DX009 (ip), vehicle: saline); 104 % of control under setting [8]; 104 % of control (endpoint: mean survival time, dose: 400.0 mg/kg/injection, schedule: Q01DX009 (ip), vehicle: saline); 104 % of control under setting [9].
Turning to `CC1(C)CC(=O)C2(CNC3=C(CCC(C)(C)C3)C2)C(=O)C1`, the T/C is 91 % of control under setting [1]; 91 % of control under setting [2]; 100 % of control under setting [3]; 91 % of control (endpoint: mean survival time, dose: 400.0 mg/kg/injection, schedule: Q04DX002 (ip), vehicle: saline with Tween-80).
Take `CCCC(C)(CCC)OC(=O)Nc1cccc2ccccc12`: the T/C was 92 % of control (endpoint: mean survival time, dose: 100.0 mg/kg/injection, schedule: Q01DX001 (ip), vehicle: saline with Tween-80); 92 % of control (endpoint: mean survival time, dose: 200.0 mg/kg/injection, schedule: Q01DX001 (ip), vehicle: saline with Tween-80); 92 % of control (endpoint: mean survival time, dose: 400.0 mg/kg/injection, schedule: Q01DX001 (ip), vehicle: saline with Tween-80).
In the case of `CS(=O)(=O)OCCBr`, the T/C (endpoint: mean survival time, dose: 50.0 mg/kg/injection, schedule: Q04DX003 (ip), vehicle: saline) was 102 % of control.
In the case of `CCOC(OCC)c1cc[n+](CCc2ccc(OC)c(OC)c2)cc1`, the T/C under setting [7] is 96 % of control.
`O=c1n(-c2ccccc2)c(=O)n2n1CC(c1ccccc1)=N2`: the T/C is 97 % of control (endpoint: mean survival time, dose: 12.5 mg/kg/injection, schedule: Q01DX009 (ip), vehicle: other); 100 % of control (endpoint: mean survival time, dose: 25.0 mg/kg/injection, schedule: Q01DX009 (ip), vehicle: other); 97 % of control (endpoint: mean survival time, dose: 50.0 mg/kg/injection, schedule: Q01DX009 (ip), vehicle: other); 103 % of control (endpoint: mean survival time, dose: 100.0 mg/kg/injection, schedule: Q01DX009 (ip), vehicle: other); 96 % of control (endpoint: mean survival time, dose: 200.0 mg/kg/injection, schedule: Q01DX009 (ip), vehicle: other).
Turning to `Cc1cc(=O)cc(CC(=O)C(=O)O)o1`, the T/C is, setting by setting: under setting [10], 101 % of control; under setting [4], 97 % of control; under setting [5], 95 % of control; under setting [6], 97 % of control.
In the case of `COc1ccc(N=C=S)cc1N=C=S`, the T/C reads like this: (endpoint: mean survival time, dose: 6.25 mg/kg/injection, schedule: Q01DX001 (ip), vehicle: saline with Tween-80) 98 % of control; (endpoint: mean survival time, dose: 12.5 mg/kg/injection, schedule: Q01DX001 (ip), vehicle: saline with Tween-80) 97 % of control; (endpoint: mean survival time, dose: 25.0 mg/kg/injection, schedule: Q01DX001 (ip), vehicle: saline with Tween-80) 101 % of control.
In the case of `Cc1ccccc1N1OS(=O)(=O)CC1(C#N)c1ccccc1` (stereo not drawn), the T/C by setting is: (endpoint: mean survival time, dose: 100.0 mg/kg/injection, schedule: Q01DX001 (ip), vehicle: saline) 106 % of control; under setting [7], 98 % of control; (endpoint: mean survival time, dose: 200.0 mg/kg/injection, schedule: Q01DX001 (ip), vehicle: saline) 100 % of control; under setting [8], 101 % of control; (endpoint: mean survival time, dose: 400.0 mg/kg/injection, schedule: Q01DX001 (ip), vehicle: saline) 102 % of control; under setting [9], 96 % of control.
Turning to `COc1ccc(NC(=O)Oc2ccc(C(C)(C)C)cc2)cc1`, the T/C by setting is: (endpoint: mean survival time, dose: 25.0 mg/kg/injection, schedule: Q01DX009 (ip), vehicle: saline with Tween-80) 93 % of control; (endpoint: mean survival time, dose: 25.0 mg/kg/injection, schedule: Q04DX002 (ip), vehicle: saline with Tween-80) 104 % of control; (endpoint: mean survival time, dose: 50.0 mg/kg/injection, schedule: Q01DX009 (ip), vehicle: saline with Tween-80) 97 % of control; under setting [1], 117 % of control; under setting [11], 97 % of control; under setting [2], 87 % of control and 93 % of control.
As for `[Cu+2].[NH-]CC(=O)O.[NH-]CC(=O)O`, the T/C is 98 % of control (endpoint: mean survival time, dose: 5.0 mg/kg/injection, schedule: Q01DX009 (ip), vehicle: saline) and 104 % of control (endpoint: mean survival time, dose: 10.0 mg/kg/injection, schedule: Q01DX009 (ip), vehicle: saline).
Turning to `O=c1[nH]c2ccccc2nc1C(Cl)Cl`, the T/C is 105 % of control (endpoint: mean survival time, dose: 25.0 mg/kg/injection, schedule: Q01DX009 (ip), vehicle: Klucel (hydroxypropylcellulose) (HPC)); 100 % of control (endpoint: mean survival time, dose: 50.0 mg/kg/injection, schedule: Q01DX009 (ip), vehicle: Klucel (hydroxypropylcellulose) (HPC)); 114 % of control (endpoint: mean survival time, dose: 50.0 mg/kg/injection, schedule: Q04DX003 (ip), vehicle: Klucel (hydroxypropylcellulose) (HPC)); 116 % of control (endpoint: mean survival time, dose: 100.0 mg/kg/injection, schedule: Q01DX009 (ip), vehicle: Klucel (hydroxypropylcellulose) (HPC)); 105 % of control (endpoint: mean survival time, dose: 100.0 mg/kg/injection, schedule: Q04DX003 (ip), vehicle: Klucel (hydroxypropylcellulose) (HPC)); 105 % of control (endpoint: mean survival time, dose: 200.0 mg/kg/injection, schedule: Q04DX003 (ip), vehicle: Klucel (hydroxypropylcellulose) (HPC)). The T/C is 107 % of control (endpoint: median survival time, dose: 50.0 mg/kg/injection, schedule: Q04DX003 (ip), vehicle: Klucel (hydroxypropylcellulose) (HPC)); 104 % of control (endpoint: median survival time, dose: 100.0 mg/kg/injection, schedule: Q04DX003 (ip), vehicle: Klucel (hydroxypropylcellulose) (HPC)); 117 % of control (endpoint: median survival time, dose: 200.0 mg/kg/injection, schedule: Q04DX003 (ip), vehicle: Klucel (hydroxypropylcellulose) (HPC)).
In the case of `CCCCc1nc2c(O)ccc(O)c2nc1C`, the T/C reads like this: (endpoint: mean survival time, dose: 18.75 mg/kg/injection, schedule: Q01DX009 (ip), vehicle: other) 96 % of control; (endpoint: mean survival time, dose: 37.5 mg/kg/injection, schedule: Q01DX009 (ip), vehicle: other) 94 % of control; (endpoint: mean survival time, dose: 75.0 mg/kg/injection, schedule: Q01DX009 (ip), vehicle: other) 90 % of control.
As to `C#CCOC1CCCC1O` (stereo not drawn), the T/C (endpoint: mean survival time, dose: 100.0 mg/kg/injection, schedule: Q04DX003 (ip), vehicle: acetone) is 101 % of control.
Turning to `OC1CCCC/C1=C/C=C/c1ccccc1` (stereo not drawn), the T/C was 92 % of control and 91 % of control under setting [11]; 94 % of control and 92 % of control (endpoint: mean survival time, dose: 200.0 mg/kg/injection, schedule: Q01DX009 (ip), vehicle: saline with Tween-80); 93 % of control (endpoint: mean survival time, dose: 400.0 mg/kg/injection, schedule: Q01DX009 (ip), vehicle: saline with Tween-80).
Turning to `CC[C@@H](C)[C@H]([C@H](CC(=O)N1CCC[C@@H]1[C@@H](OC)[C@H](C)C(=O)N[C@H](Cc1ccccc1)c1nccs1)OC)N(C)C(=O)[C@H](NC(=O)[C@@H](C(C)C)N(C)C)C(C)C`, the T/C is, setting by setting: (endpoint: median survival time, dose: 1.63 micrograms/kg/injection, schedule: Q01DX005 (ip), vehicle: saline + alcohol) 119 % of control; (endpoint: median survival time, dose: 6.5 micrograms/kg/injection, schedule: Q01DX005 (ip), vehicle: saline + alcohol) 160 % of control; (endpoint: median survival time, dose: 26.0 micrograms/kg/injection, schedule: Q01DX005 (ip), vehicle: saline + alcohol) 86 % of control.
For `CCn1c(=S)[nH]c(=O)c2n[nH]nc21`, the T/C (endpoint: mean survival time, dose: 100.0 mg/kg/injection, schedule: Q01DX009 (ip), vehicle: acetone) is 100 % of control and the T/C (endpoint: mean survival time, dose: 200.0 mg/kg/injection, schedule: Q01DX009 (ip), vehicle: acetone) was 94 % of control.
Consider `COc1ccc2c(c1)c(C(=O)O)cc(=O)n2C`, for which the T/C under setting [10] is 101 % of control; the T/C under setting [4] is 97 % of control; the T/C (endpoint: mean survival time, dose: 200.0 mg/kg/injection, schedule: Q01DX009 (ip), vehicle: saline sonified) is 95 % of control; the T/C under setting [5] was 102 % of control; the T/C (endpoint: mean survival time, dose: 400.0 mg/kg/injection, schedule: Q01DX009 (ip), vehicle: saline sonified) was 95 % of control; the T/C under setting [6] is 96 % of control.
